The term IC50 denotes the concentration that gives 50% inhibition.

The results in this text go back to patent US9975888B2, “Aryl linked imidazole and triazole derivatives and methods of use thereof for improving the pharmacokinetics of a drug” (MERCK SHARP & DOHME CORP., priority 2013, dated 2018).

Type in all cases: biochemical
One test has as its target T1, CYP2C9 (Homo sapiens, UniProt P11712).
T1 construct: 0.1 mg/mL protein human liver microsomes (BD Gentest); tissue BD Gentest; host or cells: human liver microsomes
The test can be described thus: Cocktail assay for CYPs, diclofenac 4′-hydroxylation (CYP2C9), human liver microsomes. Conditions: 5 μM diclofenac, 0.1 mg/mL human liver microsomes, 10 min at 37° C.; read-out: CYP IC50 (nM) 2C9. Put shortly:
(§1)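 Pooled human liver microsomes (0.1 mg/mL) with probe cocktail incl. 5 μM diclofenac (CYP2C9) and 30 μM mephenytoin (CYP2C19), 1 mM NADPH, pH 7.4 phosphate buffer, 10 min at 37° C. Metabolites quantified by LC/MS/MS against internal standard; % inhibition versus no-inhibitor control, IC50 by non-linear regression.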
Background: Liver microsomes are vesicles of endoplasmic reticulum, rich in cytochrome P450 enzymes.

For the next test, the target named is T2, CYP1A2 (Homo sapiens, UniProt P05177).
T2 construct: 0.1 mg/mL protein human liver microsomes (BD Gentest); tissue BD Gentest; host or cells: human liver microsomes
T2 sequence (P05177 1-516): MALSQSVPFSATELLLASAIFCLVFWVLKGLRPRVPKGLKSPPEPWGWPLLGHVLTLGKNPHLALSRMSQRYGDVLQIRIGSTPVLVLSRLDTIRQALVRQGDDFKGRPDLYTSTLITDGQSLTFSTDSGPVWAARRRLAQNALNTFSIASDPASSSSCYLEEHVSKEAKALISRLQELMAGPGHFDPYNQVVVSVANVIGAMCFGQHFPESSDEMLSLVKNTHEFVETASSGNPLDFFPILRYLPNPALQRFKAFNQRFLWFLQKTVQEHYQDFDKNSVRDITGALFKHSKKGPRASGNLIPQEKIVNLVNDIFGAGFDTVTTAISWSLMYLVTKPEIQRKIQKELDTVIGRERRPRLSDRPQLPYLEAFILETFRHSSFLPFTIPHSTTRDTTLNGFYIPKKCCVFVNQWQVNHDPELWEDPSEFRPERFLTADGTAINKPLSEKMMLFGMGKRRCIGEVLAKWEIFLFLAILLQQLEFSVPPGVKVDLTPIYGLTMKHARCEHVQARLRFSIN
The test can be described thus: Cocktail assay for CYPs, phenacetin O-deethylation (CYP1A2), human liver microsomes. Conditions: 10 μM phenacetin, 0.1 mg/mL human liver microsomes, 10 min at 37° C.; read-out: CYP IC50 (nM) 1A2. A digest of the protocol:
(§2)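 Pooled human liver microsomes (0.1 mg/mL) with a probe cocktail of 10 μM phenacetin, 5 μM dextromethorphan and 2 μM midazolam plus NADPH, pH 7.4, 10 min at 37° C. Each metabolite was quantified by LC/MS/MS against a tolbutamide internal standard. IC50 came from % inhibition at 6 concentrations (e.g. 0.0032–10 μM) by non-linear regression.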

The target in test [1] is T3, CYP3A4 (Homo sapiens, UniProt P08684). The test can be described thus: Cocktail assay for CYPs, midazolam 1′-hydroxylation (CYP3A4), human liver microsomes. The settings on record: 2 μM midazolam, 0.1 mg/mL human liver microsomes, 10 min at 37° C.; read-out: CYP IC50 (nM) 3A4 (MDZ). Further details: 0.1 mg/mL protein human liver microsomes (BD Gentest); tissue BD Gentest; host or cells: human liver microsomes. Put shortly: as §2
Target sequence in this assay (P08684 whole entry): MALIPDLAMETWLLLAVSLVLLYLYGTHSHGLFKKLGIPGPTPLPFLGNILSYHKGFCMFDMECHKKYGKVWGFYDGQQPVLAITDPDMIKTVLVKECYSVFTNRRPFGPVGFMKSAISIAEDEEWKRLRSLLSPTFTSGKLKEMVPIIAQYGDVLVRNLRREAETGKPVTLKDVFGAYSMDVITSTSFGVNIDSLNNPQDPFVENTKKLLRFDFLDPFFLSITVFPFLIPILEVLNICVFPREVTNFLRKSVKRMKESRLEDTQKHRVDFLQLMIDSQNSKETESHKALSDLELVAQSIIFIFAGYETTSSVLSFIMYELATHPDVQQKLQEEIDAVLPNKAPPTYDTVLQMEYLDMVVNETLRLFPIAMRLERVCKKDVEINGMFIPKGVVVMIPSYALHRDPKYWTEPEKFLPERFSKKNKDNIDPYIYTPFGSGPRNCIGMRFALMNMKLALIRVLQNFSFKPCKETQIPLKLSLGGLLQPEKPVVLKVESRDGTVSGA

The target of test [2] is T3, CYP3A4. The test can be described thus: IC50 vs CYP3A by inhibition of lopinavir metabolism in human liver microsomes. Further details: 0.01 mg/mL protein human liver microsomes (BD Gentest); tissue BD Gentest; host or cells: human liver microsomes. The settings on record: 1.5 μM lopinavir, 0.01 mg/mL human liver microsomes, 8 min at 37° C.; read-out: CYP IC50 (nM) 3A4 (LPV). Put shortly:
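Human liver microsomes (0.01 mg/mL) with 1.5 μM lopinavir, 1 mM NADPH, 3.3 mM MgCl2 in 100 mM potassium phosphate pH 7.4, 8 min at 37 °C, six compound concentrations. Summed M2/M3/M4 hydroxy metabolites quantified by LC/MS/MS against tolbutamide; % inhibition normalised between no-inhibitor and 5 μM ketoconazole controls, IC50 by non-linear regression.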
Target sequence in this assay (P08684 2-503): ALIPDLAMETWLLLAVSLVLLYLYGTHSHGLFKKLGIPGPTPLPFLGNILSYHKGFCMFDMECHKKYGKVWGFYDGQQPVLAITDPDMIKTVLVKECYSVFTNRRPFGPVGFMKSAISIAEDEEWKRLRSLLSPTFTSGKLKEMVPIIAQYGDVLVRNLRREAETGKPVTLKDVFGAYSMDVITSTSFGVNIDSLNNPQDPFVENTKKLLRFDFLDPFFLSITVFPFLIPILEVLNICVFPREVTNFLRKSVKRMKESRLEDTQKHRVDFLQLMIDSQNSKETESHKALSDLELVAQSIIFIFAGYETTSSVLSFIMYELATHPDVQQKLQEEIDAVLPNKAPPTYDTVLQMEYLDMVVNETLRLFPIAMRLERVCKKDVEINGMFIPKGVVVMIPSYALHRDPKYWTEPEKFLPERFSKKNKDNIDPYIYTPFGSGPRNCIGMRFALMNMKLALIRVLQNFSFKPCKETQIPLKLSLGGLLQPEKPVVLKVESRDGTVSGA

The target of the next test is T4, CYP2C19 (Homo sapiens, UniProt P33261).
T4 construct: 0.1 mg/mL protein human liver microsomes (BD Gentest); tissue BD Gentest; host or cells: human liver microsomes
T4 sequence (P33261 whole entry): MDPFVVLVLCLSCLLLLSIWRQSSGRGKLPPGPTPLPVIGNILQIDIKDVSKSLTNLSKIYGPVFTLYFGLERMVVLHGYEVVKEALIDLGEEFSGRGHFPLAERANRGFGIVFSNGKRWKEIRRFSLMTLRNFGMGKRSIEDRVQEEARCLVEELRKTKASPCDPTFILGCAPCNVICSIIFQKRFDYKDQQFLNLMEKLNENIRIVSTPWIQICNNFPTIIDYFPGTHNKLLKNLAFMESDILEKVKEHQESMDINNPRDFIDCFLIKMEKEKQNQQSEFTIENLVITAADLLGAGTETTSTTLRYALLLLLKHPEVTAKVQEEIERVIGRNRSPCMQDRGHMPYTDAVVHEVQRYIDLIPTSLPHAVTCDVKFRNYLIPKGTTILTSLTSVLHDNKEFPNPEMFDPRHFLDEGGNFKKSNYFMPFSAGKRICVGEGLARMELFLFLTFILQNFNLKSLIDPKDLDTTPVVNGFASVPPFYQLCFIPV
As to the kind of experiment: Cocktail assay for CYPs, mephenytoin 4′-hydroxylation (CYP2C19), human liver microsomes. The settings on record: 30 μM mephenytoin, 0.1 mg/mL human liver microsomes, 10 min at 37° C.; read-out: CYP IC50 (nM) 2C19. Put shortly: as §1

The next test concerns the target T5, CYP2D6 (Homo sapiens, UniProt P10635).
T5 construct: 0.1 mg/mL protein human liver microsomes (BD Gentest); tissue BD Gentest; host or cells: human liver microsomes
The test can be described thus: Cocktail assay for CYPs, dextromethorphan O-demethylation (CYP2D6), human liver microsomes. Conditions: 5 μM dextromethorphan, 0.1 mg/mL human liver microsomes, 10 min at 37° C.; read-out: CYP IC50 (nM) 2D6. A digest of the protocol: as §2

T5 sequence (P10635 whole entry): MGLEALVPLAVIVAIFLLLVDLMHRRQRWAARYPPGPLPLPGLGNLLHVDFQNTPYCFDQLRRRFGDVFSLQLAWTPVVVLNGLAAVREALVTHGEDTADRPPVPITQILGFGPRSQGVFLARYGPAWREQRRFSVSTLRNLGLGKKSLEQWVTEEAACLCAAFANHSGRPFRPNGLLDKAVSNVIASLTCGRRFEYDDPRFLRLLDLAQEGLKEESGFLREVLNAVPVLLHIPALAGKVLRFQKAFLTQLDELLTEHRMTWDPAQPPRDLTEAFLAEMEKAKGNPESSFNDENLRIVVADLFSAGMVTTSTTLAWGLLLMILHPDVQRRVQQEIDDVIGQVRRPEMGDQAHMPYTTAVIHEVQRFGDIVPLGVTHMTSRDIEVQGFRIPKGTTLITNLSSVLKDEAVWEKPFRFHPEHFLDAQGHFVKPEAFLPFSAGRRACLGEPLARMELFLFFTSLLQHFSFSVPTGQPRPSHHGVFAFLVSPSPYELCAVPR
T1 sequence (P11712 whole entry): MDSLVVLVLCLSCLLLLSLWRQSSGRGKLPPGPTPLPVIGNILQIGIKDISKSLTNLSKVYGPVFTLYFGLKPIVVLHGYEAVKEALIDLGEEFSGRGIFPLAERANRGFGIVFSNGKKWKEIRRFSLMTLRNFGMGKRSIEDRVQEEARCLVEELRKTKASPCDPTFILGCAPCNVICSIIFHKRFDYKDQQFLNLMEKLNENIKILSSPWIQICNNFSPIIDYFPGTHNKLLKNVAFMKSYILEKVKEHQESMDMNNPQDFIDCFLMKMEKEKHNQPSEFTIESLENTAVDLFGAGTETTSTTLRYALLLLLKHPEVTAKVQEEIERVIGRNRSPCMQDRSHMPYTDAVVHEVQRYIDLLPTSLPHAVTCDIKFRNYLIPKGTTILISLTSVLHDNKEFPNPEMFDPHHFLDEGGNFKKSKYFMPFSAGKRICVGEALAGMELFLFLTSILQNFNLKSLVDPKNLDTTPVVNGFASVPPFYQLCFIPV

On to `CN(C)c1ccc(S(=O)(=O)N2CCc3c(cccc3-c3cncn3CCc3ccc(F)cc3)C2)cn1` [Compound 61, 5-((5-(1-(4-fluorophenethyl)-1H-imidazol-5-yl)-3,4-dihydroisoquinolin-2(1H)-yl)sulfonyl)-N,N-dimethyl-pyridin-2-amine], for which the IC50 at CYP2C9 turned out to be 1050 nM; on CYP1A2 it was 4620 nM; on CYP3A4 [1], 7.6 nM; on CYP3A4 [2], 1.4 nM; at CYP2C19, 65 nM; at CYP2D6, 3250 nM.
In the case of `C[C@H](c1ccc(F)cc1)n1cncc1-c1ccc2c(c1)CN(S(=O)(=O)c1cnc(N)s1)CC2` [Compound 2, (R)-5-((7-(1-(1-(4-fluorophenyl)ethyl)-1H-imidazol-5-yl)-3,4-dihydroisoquinolin-2(1H)-yl)sulfonyl)thiazol-2-amine], the IC50 was 505 nM at CYP2C9; 2610 nM at CYP1A2; 39 nM at CYP3A4 [1]; 17 nM at CYP3A4 [2]; 121 nM at CYP2C19; 288 nM on CYP2D6.
Turning to `CN1CCN(c2ncc(S(=O)(=O)N3Cc4cccc(-c5cncn5CCc5ccc(F)cc5)c4C3)s2)CC1` [Compound 16, 5-((4-(1-(4-fluorophenethyl)-1H-imidazol-5-yl)isoindolin-2-yl)sulfonyl)-2-(4-methylpiperazin-1-yl)thiazole], the IC50 at CYP2C9 came to 486 nM; at CYP1A2, 3100 nM; at CYP3A4 [1] it was 13.2 nM; on CYP3A4 [2] it was 9.5 nM; on CYP2C19, 1260 nM; on CYP2D6 it was 360 nM.
With `CC(C)OC(=O)N1CCCC1c1cccc(-c2cncn2CCc2ccc(F)cc2)c1` (stereo not drawn) [Compound 56, Isopropyl 2-(3-(1-(4-fluorophenethyl)-1H-imidazol-5-yl)phenyl) pyrrolidine-1-carboxylate], the IC50 at CYP2C9 amounted to 798 nM; on CYP1A2 it was 3400 nM; at CYP3A4 [1] it was 18.8 nM; at CYP3A4 [2], 11.8 nM; on CYP2C19 it was 452 nM; on CYP2D6 it was 4150 nM.
On to `CC(=O)Nc1ncc(S(=O)(=O)N2CCCC2c2ccccc2-c2cncn2C2CC2)s1` (stereo not drawn) [Compound 31, N-(5-((2-(2-(1-cyclopropyl-1H-imidazol-5-yl)phenyl)pyrrolidin-1-yl)sulfonyl)thiazol-2-yl) acetamide], for which the IC50 is over 10000 nM at CYP2C9; over 10000 nM at CYP1A2; 25.4 nM on CYP3A4 [1]; 25.4 nM on CYP3A4 [2]; over 10000 nM at CYP2C19; over 10000 nM at CYP2D6.
Turning to `COc1ccc(OC)c(S(=O)(=O)N2CCCC2c2ccccc2-c2cncn2CCc2ccc(F)cc2)c1` (stereo not drawn) [Compound 27, 5-(2-(1-((2,5-dimethoxyphenyl)sulfonyl)pyrrolidin-2-yl)phenyl)-1-(4-fluorophenethyl)-1H-imidazole], the IC50 at CYP2C9 worked out at 1910 nM; at CYP1A2, 2650 nM; on CYP3A4 [1] it was 36.1 nM; at CYP3A4 [2], 41 nM; at CYP2C19 it was 3800 nM; at CYP2D6, 3480 nM.
As for `Cn1cncc1-c1ccccc1C1CCCN1S(=O)(=O)c1cnc(N2CCN3C[C@H](O)C[C@H]3C2)s1` (stereo partly drawn) [Compound 24, (7R,8aS)-2-(5-((2-(2-(1-methyl-1H-imidazol-5-yl)phenyl)pyrrolidin-1-yl)sulfonyl)thiazol-2-yl)octahydro-pyrrolo[1,2-a] pyrazin-7-ol], the IC50 was over 10000 nM on CYP2C9; over 10000 nM on CYP1A2; 32.5 nM at CYP3A4 [1]; 29.5 nM at CYP3A4 [2]; over 10000 nM at CYP2C19; over 10000 nM on CYP2D6.
Turning to `O=C(C1CCOCC1)N1CCCC1c1ccccc1-c1cncn1CCc1ccc(F)cc1` (stereo not drawn) [Compound 41, (2-(2-(1-(4-fluorophenethyl)-1H-imidazol-5-yl)phenyl)pyrrolidin-1-yl)(tetrahydro-2H-pyran-4-yl)methanone], the IC50 at CYP2C9 is over 10000 nM; on CYP1A2, over 10000 nM; on CYP3A4 [1], 10.7 nM; on CYP3A4 [2], 11.1 nM; at CYP2C19, over 10000 nM; at CYP2D6, over 10000 nM.
Regarding `O=S(=O)(c1ccc2c(c1)OCO2)N1CCCC1c1ccccc1-c1cncn1CCc1ccc(F)cc1` (stereo not drawn) [Compound 26, 5-(2-(1-(benzo[d][1,3]dioxol-5-ylsulfonyl)pyrrolidin-2-yl)phenyl)-1-(4-fluorophenethyl)-1H-imidazole], the IC50 stood at 1160 nM at CYP2C9; 5020 nM at CYP1A2; 3.8 nM on CYP3A4 [1]; 1 nM at CYP3A4 [2]; 1360 nM on CYP2C19; 1650 nM at CYP2D6.
Consider `CS(=O)(=O)N1CCCC1c1cccc(-c2cncn2CCc2ccc(F)cc2)c1` (stereo not drawn) [Compound 51, 1-(4-fluorophenethyl)-5-(3-(1-(methylsulfonyl)pyrrolidin-2-yl)phenyl)-1H-imidazole], for which the IC50 worked out at 4640 nM at CYP2C9; 1160 nM at CYP1A2; 22.6 nM at CYP3A4 [1]; 34.7 nM on CYP3A4 [2]; 2110 nM at CYP2C19; 6780 nM on CYP2D6.
For `CC(=O)Nc1ncc(S(=O)(=O)NC2(c3ccc(-c4cncn4[C@H](C)c4ccc(F)cc4)cc3)CC2)s1` [Compound 10, (R)—N-(5-(N-(1-(4-(1-(1-(4-fluorophenyl)ethyl)-1H-imidazol-5-yl)phenyl)cyclopropyl)sulfamoyl)thiazol-2-yl)acetamide], the IC50 is over 10000 nM at CYP2C9; 8480 nM on CYP1A2; 192 nM on CYP3A4 [1]; over 100 nM on CYP3A4 [2]; over 10000 nM at CYP2C19; 9200 nM on CYP2D6.
Turning to `O=S(=O)(NCCc1ccccc1-c1cncn1CCc1ccc(F)cc1)c1cccnc1` [Compound 14, N-(2-(1-(4-fluorophenethyl)-1H-imidazol-5-yl)phenethyl)pyridine-3-sulfonamide], the IC50 is 7410 nM at CYP2C9; over 10000 nM at CYP1A2; 137 nM on CYP3A4 [1]; 54 nM on CYP3A4 [2]; over 10000 nM at CYP2C19; 1100 nM on CYP2D6.
As for `CC(=O)Nc1ncc(S(=O)(=O)N2CCCC2c2ccc(-c3cncn3CCc3ccc(F)cc3)cc2)s1` (stereo not drawn) [Compound 8, N-(5-((2-(4-(1-(4-fluorophenethyl)-1H-imidazol-5-yl)phenyl)pyrrolidin-1-yl)sulfonyl)thiazol-2-yl)acetamide], the IC50 turned out to be 565 nM on CYP2C9; 8560 nM at CYP1A2; 4.4 nM at CYP3A4 [1]; 1.9 nM at CYP3A4 [2]; 281 nM on CYP2C19; 1200 nM on CYP2D6.
As for `O=S(=O)(c1cnc(N2CCN3C[C@H](O)C[C@H]3C2)s1)N1CCCC1c1ccccc1-c1cncn1CCc1ccc(F)cc1` (single isomer, unassigned) [Compound 22b, (7R,8aS)-2-(5-(((R or S)-2-(2-(1-(4-fluoro-phenethyl)-1H-imidazol-5-yl)phenyl)pyrrolidin-1-yl)sulfonyl)thiazol-2-yl) octahydro-pyrrolo[1,2-a] pyrazin-7-ol], the 50% inhibitory concentration (IC50) at CYP2C9 was 1690 nM; on CYP1A2, over 10000 nM; on CYP3A4 [1], 9.6 nM; at CYP3A4 [2], 4.5 nM; on CYP2C19 it was over 10000 nM; on CYP2D6, 4620 nM.
